Test results from ChEMBL document CHEMBL2074063, “P-glycoprotein-mediated efflux of hydroxyrubicin, a neutral anthracycline derivative, in resistant K562 cells” (FEBS Lett, 1994).

Molecular target: ABCB1 (P-glycoprotein) (Homo sapiens, UniProt P08183)
Assay: TP_TRANSPORTER: efflux in Doxorubicin resistant K562 cells

Sequence of ABCB1 (P-glycoprotein) (P08183 whole entry): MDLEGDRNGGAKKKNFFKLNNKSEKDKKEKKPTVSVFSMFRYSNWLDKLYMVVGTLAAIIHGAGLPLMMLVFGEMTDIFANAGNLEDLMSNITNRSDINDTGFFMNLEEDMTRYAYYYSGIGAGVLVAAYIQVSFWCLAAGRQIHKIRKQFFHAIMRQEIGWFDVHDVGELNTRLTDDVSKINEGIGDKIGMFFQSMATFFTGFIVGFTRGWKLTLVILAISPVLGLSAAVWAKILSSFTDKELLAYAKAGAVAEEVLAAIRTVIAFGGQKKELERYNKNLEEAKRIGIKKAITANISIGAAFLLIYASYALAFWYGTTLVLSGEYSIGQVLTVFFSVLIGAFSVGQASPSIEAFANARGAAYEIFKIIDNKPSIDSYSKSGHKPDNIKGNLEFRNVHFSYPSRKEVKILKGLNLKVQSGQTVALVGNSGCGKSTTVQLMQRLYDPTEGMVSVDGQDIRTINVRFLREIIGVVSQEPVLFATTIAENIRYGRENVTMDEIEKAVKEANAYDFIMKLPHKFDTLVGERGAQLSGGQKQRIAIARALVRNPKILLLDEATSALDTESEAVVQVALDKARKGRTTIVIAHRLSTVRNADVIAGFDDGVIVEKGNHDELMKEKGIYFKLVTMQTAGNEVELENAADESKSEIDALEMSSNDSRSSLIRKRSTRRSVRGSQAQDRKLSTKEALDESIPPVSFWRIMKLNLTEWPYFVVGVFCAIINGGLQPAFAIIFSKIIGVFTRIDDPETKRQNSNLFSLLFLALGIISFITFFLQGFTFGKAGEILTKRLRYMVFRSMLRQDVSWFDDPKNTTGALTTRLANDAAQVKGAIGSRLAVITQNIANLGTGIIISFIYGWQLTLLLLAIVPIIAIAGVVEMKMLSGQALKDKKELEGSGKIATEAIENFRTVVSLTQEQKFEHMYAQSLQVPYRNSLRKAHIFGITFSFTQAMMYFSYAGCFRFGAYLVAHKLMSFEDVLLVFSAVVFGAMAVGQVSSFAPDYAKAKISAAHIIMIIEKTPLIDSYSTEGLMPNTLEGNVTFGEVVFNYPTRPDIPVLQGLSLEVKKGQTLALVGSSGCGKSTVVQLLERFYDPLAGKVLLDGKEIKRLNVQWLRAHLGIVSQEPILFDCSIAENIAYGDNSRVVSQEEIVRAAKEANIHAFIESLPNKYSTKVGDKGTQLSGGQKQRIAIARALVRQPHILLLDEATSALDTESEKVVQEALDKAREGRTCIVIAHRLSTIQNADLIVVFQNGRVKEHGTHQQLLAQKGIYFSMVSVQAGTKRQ

**Q.** With `COc1cccc2c1C(=O)c1c(O)c3c(c(O)c1C2=O)C[C@@](O)(C(=O)CO)C[C@@H]3O[C@H]1C[C@H](O)[C@H](O)[C@H](C)O1` [HYDROXYRUBICIN] as the molecule, how does the Km read?
**A.** Its Km is 2 µM.
